Consider 32 compounds from patent US10968203B2, “Pyrimidinyl-pyridyloxy-naphthyl compounds and methods of treating IRE1-related diseases and disorders” (Genentech, Inc., priority 2017, dated 2021).

Counter-ions that a name gives are not always drawn.

The subject of the first assay is XBP1s-luc 293 LUC. In words: cellular PD assay, XBP1s-LUC reporter (Example 903). As to conditions: Table 1; read-out: XBP1s-luc 293 LUC (IC50). It is filed as cell-based. Put shortly: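 A luciferase fusion, in frame and expressed only when the XBP1 transcript is spliced, served as the readout of cellular IRE1α activity in an XBP1-Luc reporter line.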
Broadly, the IC50 is the midpoint of a concentration-inhibition curve. With `Cc1ccc2c(NS(=O)(=O)C3CC3)cccc2c1Oc1ncccc1-c1ccnc(N[C@H]2CCCNC2)n1` [Example 105, (S)—N-(6-Methyl-5-((3-(2-(piperidin-3-ylamino)pyrimidin-4-yl)pyridin-2-yl)oxy)naphthalen-1-yl)cyclopropanesulfonamide hydrochloride], the IC50 was found to be 493 nM.
Same read-out and setting: as for `Cc1ccc2c(NC(=O)C3CCCC3(F)F)cccc2c1Oc1ncccc1-c1ccnc(N[C@H]2CCCNC2)n1` (stereo partly drawn) [Example 251, 2,2-Difluoro-N-(6-methyl-5-((3-(2-(((S)-piperidin-3-yl)amino)pyrimidin-4-yl)pyridin-2-yl)oxy)naphthalen-1-yl)cyclopentane-1-carboxamide], the figure is 145 nM; as for `Cc1ccc2c(NCc3ccccn3)cccc2c1Oc1ncccc1-c1ccnc(N[C@H]2CCCNC2)n1` [Example 261, (S)-4-(2-((2-Methyl-5-((pyridin-2-ylmethyl)amino)naphthalen-1-yl)oxy)pyridin-3-yl)-N-(piperidin-3-yl)pyrimidin-2-amine], 220 nM.
On to `Cc1ccc2c(NS(=O)(=O)N3CCC3)cccc2c1Oc1ncccc1-c1ccnc(N[C@H]2CCCNC2)n1` [Example 195, (S)—N-(6-Methyl-5-((3-(2-(piperidin-3-ylamino)pyrimidin-4-yl)pyridin-2-yl)oxy)naphthalen-1-yl)azetidine-1-sulfonamide], for which the IC50 was 202 nM.
On the same count and under the same terms, as for `Cc1ccc2c(NCCCC(F)(F)F)cccc2c1Oc1ncccc1-c1ccnc(N[C@H]2CCCNC2)n1` [Example 344, (S)-4-(2-((2-Methyl-5-((4,4,4-trifluorobutyl)amino)naphthalen-1-yl)oxy)pyridin-3-yl)-N-(piperidin-3-yl)pyrimidin-2-amine], the figure is 350 nM.
On to `Cc1ccc2c(NC(=O)C3CC3C(F)(F)F)cccc2c1Oc1ncccc1-c1ccnc(N[C@H]2CCCNC2)n1` (single isomer, unassigned) [Example 228], for which the IC50 was 88 nM.
With `Cc1ccc2c(NC(=O)[C@H]3CC34CCC4)c(F)ccc2c1Oc1ncccc1-c1ccnc(N[C@H]2CCCNC2)n1` (single isomer, unassigned) [Example 386], the IC50 was found to be 280 nM.
On the same count and under the same terms, the same measure for `Cc1ccc2c(NC(=O)C3CC34CCCCC4)cccc2c1Oc1ncccc1-c1ccnc(N[C@H]2CCCNC2)n1` (mixture of isomers) [Example 281, N-(6-Methyl-5-((3-(2-(((S)-piperidin-3-yl)amino)pyrimidin-4-yl)pyridin-2-yl)oxy)naphthalen-1-yl)spiro[2.5]octane-1-carboxamide]: 89 nM.
On the same count and under the same terms, as for `Cc1ccc2c(NC(=O)[C@H]3CCCC3C)cccc2c1Oc1ncccc1-c1ccnc(N[C@H]2CCCNC2)n1` (single isomer, unassigned) [Example 372], the figure is 470 nM; as for `Cc1ccc2c(NCCC(C)O)cccc2c1Oc1ncccc1-c1ccnc(N[C@H]2CCCNC2)n1` (mixture of isomers) [Example 390, 4-((6-Methyl-5-((3-(2-((S)-piperidin-3-ylamino)pyrimidin-4-yl)pyridin-2-yl)oxy)naphthalen-1-yl)amino)butan-2-ol], 143 nM.
In the case of `Cc1ccc2c(NS(=O)(=O)CCC(F)(F)F)c(F)ccc2c1Oc1ncccc1-c1ccnc(N[C@H]2CCCNC2)n1` [Example 276, (S)-3,3,3-Trifluoro-N-(2-fluoro-6-methyl-5-((3-(2-(piperidin-3-ylamino)pyrimidin-4-yl)pyridin-2-yl)oxy)naphthalen-1-yl)propane-1-sulfonamide hydrochloride], the IC50 turned out to be 44.1 nM.
Still for that read-out and setting: the same measure for `CCCS(=O)(=O)Nc1cccc2c(Oc3ncccc3-c3ccnc(N[C@H]4CCCNC4)n3)c(F)ccc12` [Example 305, (S)—N-(6-Fluoro-5-((3-(2-(piperidin-3-ylamino)pyrimidin-4-yl)pyridin-2-yl)oxy)naphthalen-1-yl)propane-1-sulfonamide]: 481 nM.
On the same count and under the same terms, as for `Cc1ccc2c(NC(=O)C3CCC3)cccc2c1Oc1ncccc1-c1ccnc(N[C@H]2CCCNC2)n1` [Example 131, (S)—N-(6-Methyl-5-((3-(2-(piperidin-3-ylamino)pyrimidin-4-yl)pyridin-2-yl)oxy)naphthalen-1-yl)cyclobutanecarboxamide], the figure is 153 nM; as for `Cc1ccc2c(NC(=O)[C@@H]3CC3C3CC3)cccc2c1Oc1ncccc1-c1ccnc(N[C@H]2CCCNC2)n1` (single isomer, unassigned) [Example 274], 100 nM; as for `Cc1ccc2c(NC[C@H]3CCOC3)cccc2c1Oc1ncccc1-c1ccnc(N[C@H]2CCCNC2)n1` (single isomer, unassigned) [Example 352], 499 nM.
The same measure, in the same setting: the same measure for `CCCS(=O)(=O)Nc1cccc2c(Oc3ncccc3-c3ccnc(N[C@H]4CC[C@H](C)NC4)n3)c(C)ccc12` (single isomer, unassigned) [Example 196]: 162 nM; for `Cc1ccc2c(NS(=O)(=O)C3CCCCC3)c(F)ccc2c1Oc1ncccc1-c1ccnc(N[C@H]2CCCNC2)n1` [Example 282, (S)—N-(2-Fluoro-6-methyl-5-((3-(2-(piperidin-3-ylamino)pyrimidin-4-yl)pyridin-2-yl)oxy)naphthalen-1-yl)cyclohexanesulfonamide]: 24.8 nM; for `Cc1ccc2c(NS(=O)(=O)N(C)C)c(F)ccc2c1Oc1ncccc1-c1ccnc(N[C@@H]2CNC[C@H](C)C2)n1` [Example 325, 4-[2-[[5-(Dimethylsulfamoylamino)-6-fluoro-2-methyl-1-naphthyl]oxy]-3-pyridyl]-2-[[(3S,5R)-5-methyl-3-piperidyl]amino]pyrimidine]: 35 nM.
For the compound `Cc1ccc2c(NC(=O)[C@@H]3C[C@@H]3F)cccc2c1Oc1ncccc1-c1ccnc(N[C@H]2CCCNC2)n1` (relative stereo) [Example 212, (1S,2S)-2-Fluoro-N-[6-methyl-5-[[3-[2-[[(3S)-3-piperidyl]amino]pyrimidin-4-yl]-2-pyridyl]oxy]-1-naphthyl]cyclopropanecarboxamide], the IC50 is 122 nM.
The same measure, in the same setting: the same measure for `CCN(C)S(=O)(=O)Nc1cccc2c(Oc3ncccc3-c3ccnc(N[C@H]4CCCNC4)n3)c(C)ccc12` [Example 113, 4-[2-[[5-[[Ethyl(methyl)sulfamoyl]amino]-2-methyl-1-naphthyl]oxy]-3-pyridyl]-2-[[(3S)-3-piperidyl]amino]pyrimidine hydrochloride]: 343 nM.
On to `Cc1ccc2c(NC3CCCC[C@H]3O)cccc2c1Oc1ncccc1-c1ccnc(N[C@H]2CCCNC2)n1` (stereo partly drawn) [Example 384, trans-2-((6-Methyl-5-((3-(2-((S)-piperidin-3-ylamino)pyrimidin-4-yl)pyridin-2-yl)oxy)naphthalen-1-yl)amino)cyclohexanol], for which the IC50 is 146 nM.
Still for that read-out and setting: as for `Cc1ccc2c(N3CCCCCC3=O)cccc2c1Oc1ncccc1-c1ccnc(N[C@H]2CCCNC2)n1` [Example 249, (S)-1-(6-Methyl-5-((3-(2-(piperidin-3-ylamino)pyrimidin-4-yl)pyridin-2-yl)oxy)naphthalen-1-yl)azepan-2-one], the figure is 309 nM.

Still in this assay, the particulars now being: Table 2; read-out: XBP1s-luc 293 LUC (IC50).
`Cc1ccc2c(NC[C@H](O)C(F)(F)F)cccc2c1Oc1ncccc1-c1ccnc(N[C@@H]2CNC[C@@H](F)C2)n1` (single isomer, unassigned) [Example 469, hydrochloride]: the IC50 came out at 5 nM.
The same measure, in the same setting: as for `Cc1ccc2c(NS(=O)(=O)Cc3ccccc3F)c(F)ccc2c1Oc1ncccc1-c1ccnc(N[C@H]2CNC[C@H](F)C2)n1` (single isomer, unassigned) [Example 463, hydrochloride], the figure is 268 nM; as for `Cc1ccc2c(NS(=O)(=O)CC3CCC3)c(F)ccc2c1Oc1ncccc1-c1ccnc(N[C@H]2CCCNC2)n1` [Example 400, (S)-1-Cyclobutyl-N-(2-fluoro-6-methyl-5-((3-(2-(piperidin-3-ylamino)pyrimidin-4-yl)pyridin-2-yl)oxy)naphthalen-1-yl)methanesulfonamide hydrochloride], 26 nM; as for `Cc1ccc2c(NS(=O)(=O)C[C@@H]3CCCO3)c(F)ccc2c1Oc1ncccc1-c1ccnc(N[C@H]2CCCNC2)n1` (single isomer, unassigned) [Example 416, hydrochloride], 105 nM.
Turning to `Cc1ccc2c(NS(=O)(=O)N(C)Cc3ccccc3)c(F)ccc2c1Oc1ncccc1-c1ccnc(N[C@H]2CCCNC2)n1` [Example 410, 4-[2-[[5-[[Benzyl(methyl)sulfamoyl]amino]-6-fluoro-2-methyl-1-naphthyl]oxy]-3-pyridyl]-2-[[(3S)-3-piperidyl]amino]pyrimidine hydrochloride], the IC50 came out at 87 nM.
Turning to `Cc1ccc2c(NS(=O)(=O)c3ccc4c(c3)OCO4)c(F)ccc2c1Oc1ncccc1-c1ccnc(N[C@H]2CCCNC2)n1` [Example 403, N-[2-Fluoro-6-methyl-5-[[3-[2-[[(3S)-3-piperidyl]amino]pyrimidin-4-yl]-2-pyridyl]oxy]-1-naphthyl]-1,3-benzodioxole-5-sulfonamide], the IC50 was 44 nM.
On the same count and under the same terms, as for `Cc1ccc2c(NC[C@@H](O)C3CC3)cccc2c1Oc1ncccc1-c1ccnc(N[C@H]2CCCNC2)n1` (single isomer, unassigned) [Example 488, hydrochloride], the figure is 30 nM; as for `Cc1ccc2c(NS(=O)(=O)CCC(F)F)c(F)ccc2c1Oc1ncccc1-c1ccnc(N[C@@H]2CNC[C@H](C)C2)n1` [Example 472, 3,3-Difluoro-N-(2-fluoro-6-methyl-5-((3-(2-(((3S,5R)-5-methylpiperidin-3-yl)amino)pyrimidin-4-yl)pyridin-2-yl)oxy)naphthalen-1-yl)propane-1-sulfonamide], 8 nM.
Same read-out and setting: as for `CCCN(C)S(=O)(=O)Nc1c(F)ccc2c(Oc3ncccc3-c3ccnc(N[C@H]4CCCNC4)n3)c(C)ccc12` [Example 420, 4-[2-[[6-Fluoro-2-methyl-5-[[methyl(propyl)sulfamoyl]amino]-1-naphthyl]oxy]-3-pyridyl]-2-[[(3S)-3-piperidyl]amino]pyrimidine hydrochloride], the figure is 41 nM.
As to `O=S(=O)(CCC(F)(F)F)Nc1cccc2c(Oc3ncccc3-c3ccnc(N[C@H]4CCCNC4)n3)cccc12` [Example 451], the IC50 came out at 345 nM.
